The text below walks through data of patent publication US9365522B2, “Pyrazole amide derivative” (AMGEN INC., priority 2015, dated 2016).

The experiment addresses T1, human RORγ-LBD (Homo sapiens, UniProt P51449).
T1 construct: made in house; host or cells: E. coli (BL-21)
T1 sequence (P51449 262-518): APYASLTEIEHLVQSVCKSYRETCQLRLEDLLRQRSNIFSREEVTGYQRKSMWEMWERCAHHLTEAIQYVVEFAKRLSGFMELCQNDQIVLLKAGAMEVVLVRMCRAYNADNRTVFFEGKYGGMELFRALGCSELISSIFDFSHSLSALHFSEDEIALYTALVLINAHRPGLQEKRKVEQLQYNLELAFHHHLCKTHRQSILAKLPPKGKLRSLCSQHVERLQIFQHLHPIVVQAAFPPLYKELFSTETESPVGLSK
Put plainly: ROR gamma coactivator peptide recruitment Alphascreen assay (RORγ-LBD binding to GRIP1 coactivator peptide). The format is biochemical. The conditions noted are these: 5 nM human RORγ-LBD, 30 nM 7-β-hydroxycholesterol, 50 nM biotinylated GRIP1 coactivator peptide, overnight incubation at room temperature; read-out: result (pIC50, RORγ coactivator peptide recruitment Alphascreen assay) (converted). The source says: Alphascreen™ is a bead-based amplified homogenous luminescent proximity assay that can be used for measuring the effect of compounds on protein-protein interactions. When biological interactions bring donor and acceptor beads into close proximity, reactive oxygen, generated upon laser excitation of the donor beads, initiates a luminescence/fluorescence cascade in the acceptor beads that leads to a highly amplified signal that can be measured as light in the 520-620 nm range. When the acceptor and donor beads are not in proximity, the reactive oxygen decays and only a very low background signal is generated.
An in vitro assay to assess inhibition of RORγ binding to the coactivator GRIP1 was established using Alphascreen™ technology. The interaction between nuclear receptors (NR) and coactivator proteins is a key step in signal transduction from the receptor to the transcriptional machinery and can be measured in vitro using only the ligand binding domain of the nuclear receptor and a peptide containing a coactivator protein LXXLL nuclear receptor binding motif
For the RORγ construct used in the coactivator recruitment assay, nucleotides corresponding to the ligand binding domain (LBD) of wild type human RORγ (amino acids 262-518 of Genbank Accession No. NM_005060.3) were cloned into the pET24 expression vector (Novagen), downstream of in-frame N-terminal 6×His and Flag tag sequences. Recombinant 6×His:Flag-tagged human RORγ-LBD protein was expressed in E. coli (BL-21) and purified by affinity chromatography on a nickel Sepharose column, followed by anion exchange chromatography.
A 4× assay mixture of 6×His:Flag-tagged human RORγ-LBD with the agonist ligand 7-β-hydroxycholesterol was prepared in assay buffer (50 mM HEPES pH 7.4, BSA 0.05%, 150 mM NaCl, 5 mM MgCl2, 1 mM DTT, 0.01% Tween-20). For control wells a 4× mixture of 6×His:Flag-tagged human ROR gamma LBD alone was also prepared.
A 4× stock of biotinylated coactivator peptide containing the LXXLL motif from GRIP1 (Biotin-[…]) was prepared in assay buffer.
A 4×detection mixture of nickel chelate Alphascreen™ acceptor beads (PerkinElmer) and streptavidin Alphascreen™ donor beads (PerkinElmer) was prepared in assay buffer.
Compounds to be tested were arranged in a pre-dose 384-well mother plate serially diluted 1 in 2 over 22 columns, in 100% DMSO, at 40× the final test concentration, from a high concentration of 4 mM. DMSO with no compound was placed in control columns. The compounds were robotically dispensed directly into assay plates containing assay buffer to a 4× final test concentration.
Following compound addition, the 6×His:Flag-tagged human RORγ-LBD plus 7-β-hydroxycholesterol assay mixture, biotinylated coactivator peptide and detection mixture were added. Final assay conditions were 5 nM 6×His:Flag-tagged human RORγ-LBD, 30 nM 7-β-hydroxycholesterol, 50 nM biotinylated coactivator peptide, 2.5 ug/ml nickel acceptor beads and 10 ug/ml streptavidin donor beads. The final concentration of DMSO in the assay was 2.5%.
After overnight incubation at room temperature plates were read on and Envision™ plate reader (PerkinElmer).
Data was plotted and pIC50 values were calculated using the Genedata Screener™ data analysis suite (Genedata).
On the technique in general: Bead proximity is the source of the signal in Alpha formats.
For the molecule `Cc1cc(Cl)c(CCN(CC(C)(C)C)C(=O)c2cnn(C3CCC(C(=O)O)CC3)c2C(F)(F)F)c(Cl)c1` (stereo in doubt) [Example 512, trans-4-(4-((2-(2,6-dichloro-4-methylphenyl)ethyl)(2,2 - dimethylpropyl)carbamoyl)-5-(trifluoromethyl)-1H-pyrazol-1-yl)cyclohexanecarboxylic acid], the IC50 is 7.24 nM.

For the molecule `Cc1cc(Cl)c(C(=O)CN(C(=O)c2cnn(C3CCC(C(=O)O)CC3)c2C(F)(F)F)C2CCC(C)(C)CC2)c(Cl)c1` (stereo in doubt) [Example 516, trans-4-(4-((2-(2,6-dichloro-4-methylphenyl)-2-oxoethyl)(4,4-dimethylcyclohexyl)carbamoyl)-5-(trifluoromethyl)-1H-pyrazol-1-yl)-1-cyclohexanecarboxylic acid], the IC50 is 6.03 nM.

As to `C[C@@H]1C[C@@H](n2ncc(C(=O)N(CC(=O)c3c(Cl)cccc3Cl)CC3CC(C)(C)C3)c2C(F)(F)F)CC[C@@H]1C(=O)O` (stereo in doubt) [Example 572, (1S,2R,4S)-4-(4-((2-(2,6-dichlorophenyl)-2-oxoethyl)((3,3-dimethylcyclobutyl)methyl)carbamoyl) 5-(trifluoromethyl)-1H-pyrazol-1-yl)-2-methylcyclohexanecarboxylic acid], the IC50 was 4.68 nM.

For the molecule `C=CC[C@@H]1CCCC[C@@H]1n1ncc(C(=O)N(CC(=O)c2c(Cl)cncc2Cl)CC(C)(C)C)c1C(F)(F)F` (stereo in doubt) [Example 586, N-(2-(3,5-dichloro-4-pyridinyl)-2-oxoethyl)-N-(2,2-dimethylpropyl)-1-((1S,2S)-2-(2-propen-1-yl)cyclohexyl)-5-(trifluoromethyl)-1H-pyrazole-4-carboxamide], the IC50 was 331 nM.

As for `O=C(CN(CC1(F)CCCC1)C(=O)c1cnn(C2CCC(C(=O)O)CC2)c1C(F)(F)F)c1c(Cl)cccc1Cl` (stereo in doubt) [Example 603, cis-4-(4-((2-(2,6-dichlorophenyl)-2-oxoethyl)((1-fluorocyclopentyl)methyl)carbamoyl)-5-(trifluoromethyl)-1H-pyrazol-1-yl)cyclohexanecarboxylic acid], the IC50 is 49 nM.

On to `O=C(O)C1CCC(n2ncc(C(=O)N(CCc3c(Cl)cncc3Cl)CC3(F)CCCC3)c2C(F)(F)F)CC1` (stereo in doubt) [Example 609, cis-4-(4-((2-(3,5-dichloro-4-pyridinyl)ethyl)((1-fluorocyclopentyl)methyl)carbamoyl)-5-(trifluoromethyl)-1H-pyrazol-1-yl)cyclohexanecarboxylic acid], for which the IC50 is 95.5 nM.

Regarding `O=C(CN(C(=O)c1cnn([C@H]2CC[C@@H](C(=O)O)CC2)c1C(F)(F)F)C1CCC12CCCC2)c1c(Cl)cccc1Cl` (stereo in doubt) [Example 627, cis-4-(4-((2-(2,6-dichlorophenyl)-2-oxoethyl)((1R)-spiro[3.4]oct-1-yl)carbamoyl)-5-(trifluoromethyl)-1H-pyrazol-1-yl)cyclohexanecarboxylic acid], the IC50 was 64.6 nM.

Consider `C[C@@H]1C[C@@H](n2ncc(C(=O)N(CC(=O)c3c(Cl)cncc3Cl)CC3(F)CC3)c2C(F)(F)F)CC[C@@H]1C(=O)O` (stereo in doubt) [Example 736, (1S,2R,4S)-4-(4-((2-(3,5-dichloro-4-pyridinyl)-2-oxoethyl)((1-fluorocyclopropyl)methyl)carbamoyl)-5-(trifluoromethyl)-1H-pyrazol-1-yl)-2-methylcyclohexanecarboxylic acid], for which the IC50 is 110 nM.

In the case of `C[C@H]1C[C@H](n2ncc(C(=O)N(CC(=O)c3c(Cl)cncc3Cl)CC3(F)CC3)c2C(F)(F)F)CC[C@H]1C(=O)O` (stereo in doubt) [Example 737, (1R,2S,4R)-4-(4-((2-(3,5-dichloro-4-pyridinyl)-2-oxoethyl)((1-fluorocyclopropyl)methyl)carbamoyl)-5-(trifluoromethyl)-1H-pyrazol-1-yl)-2-methylcyclohexanecarboxylic acid], the IC50 was 14.1 nM.

Take `C[C@H]1C[C@H](n2ncc(C(=O)N(CC(=O)c3c(Cl)cncc3Cl)C[C@@H]3CCC(C)(C)O3)c2C(F)(F)F)CCC1C(=O)O` (stereo in doubt) [Example 773, (1S,2S,4R)-4-(4-((2-(3,5-dichloro-4-pyridinyl)-2-oxoethyl)(((2S)-5,5-dimethyltetrahydro-2-furanyl)methyl)carbamoyl)-5-(trifluoromethyl)-1H-pyrazol-1-yl)-2-methylcyclohexanecarboxylic acid]: the IC50 is 81.3 nM.

For the molecule `C[C@@H]1CC(n2ncc(C(=O)N(CC(=O)c3c(Cl)cccc3Cl)CC(C)(C)C)c2C(F)(F)F)CCC1C(=O)O` (stereo in doubt) [Example 794, (1S,2R,4S)-4-(4-((2-(2,6-dichlorophenyl)-2-oxoethyl)(2,2-dimethylpropyl)carbamoyl)-5-(trifluoromethyl)-1H-pyrazol-1-yl)-2-methylcyclohexanecarboxylic acid], the IC50 is 2.95 nM.

Take `C[C@H]1C[C@](C)(C(=O)O)CC[C@H]1n1ncc(C(=O)N(CC(=O)c2c(Cl)cncc2Cl)CC(C)(C)C)c1C(F)(F)F` (stereo in doubt) [Example 842, (1R,3S,4R)-4-(4-((2-(3,5-dichloro-4-pyridinyl)-2-oxoethyl)(2,2-dimethylpropyl)carbamoyl)-5-(trifluoromethyl)-1H-pyrazol-1-yl)-1,3-dimethylcyclohexanecarboxylic acid]: the IC50 is 309 nM.

For the molecule `C[C@@H]1C[C@](C)(C(=O)O)CC[C@H]1n1ncc(C(=O)N(CC(=O)c2c(Cl)cncc2Cl)CC(C)(C)C)c1C(F)(F)F` (stereo in doubt) [Example 855, (1R,3R,4R)-4-(4-((2-(3,5-dichloro-4-pyridinyl)-2-oxoethyl)(2,2-dimethylpropyl)carbamoyl)-5-(trifluoromethyl)-1H-pyrazol-1-yl)-1,3-dimethylcyclohexanecarboxylic acid], the IC50 was 5.75 nM.

As to `CC1C[C@@H](n2ncc(C(=O)N(CC(=O)c3c(Cl)cncc3Cl)CC(C)(C)C)c2C(F)(F)F)CC[C@]1(C)C(=O)O` (stereo in doubt) [Example 861, (1S,2S,4S)-4-(4-((2-(3,5-dichloro-4-pyridinyl)-2-oxoethyl)(2,2-dimethylpropyl)carbamoyl)-5-(trifluoromethyl)-1H-pyrazol-1-yl)-1,2-dimethylcyclohexanecarboxylic acid], the IC50 was 4.79 nM.

`C[C@H]1C[C@@H](n2ncc(C(=O)N(CC(=O)c3c(Cl)cncc3Cl)CC(C)(C)C(F)(F)F)c2C(F)(F)F)CC[C@@H]1C(=O)O` (stereo in doubt) [Example 864, (1S,2S,4S)-4-(4-((2-(3,5-dichloro-4-pyridinyl)-2-oxoethyl)(3,3,3-trifluoro-2,2-dimethylpropyl)carbamoyl)-5-(trifluoromethyl)-1H-pyrazol-1-yl)-2-methylcyclohexanecarboxylic acid]: the IC50 is 2.95 nM.

Turning to `O=C(c1cnn([C@H]2CC[C@H](C(=O)O)CC2)c1C(F)(F)F)N(CCc1ccccc1Cl)Cc1ccc(Cl)cc1` [Example 500, trans-4-(4-((4-chlorobenzyl)(2-(2-chlorophenyl)ethyl)carbamoyl)-5-(trifluoromethyl)-1H-pyrazol-1-yl)cyclohexanecarboxylic acid], the IC50 was 15.1 nM.
